Results from publication PMC6720825, “Thiol-ene "Click" Synthesis and Pharmacological Evaluation of C-Glycoside sp^2-Iminosugar Glycolipids” (Molecules, 2019).
“Also recorded” adds a separate entry of the source. Read-outs that look alike come from different tables or passages of the source.

Experiments:
THP-1 cells = test: Cellular toxicity (MTT assay) in THP-1 cells; assay type: cell-based, human; settings: for EC50: Homo sapiens, THP-1, MTT assay, 72 h at 37 °C; for SI (EC50 THP-1/EC50 parasite): Selectivity Index
Description: Human myelomonocytic cell line THP-1 was grown at 37 °C and 5% CO2 in RPMI-1640 supplemented with 10% iFBS, 2 mM […], 100 U/mL penicillin, and 100 μg/mL streptomycin; 3 × 10^4 cells/well in 96-well plates were differentiated to macrophages with 20 ng/mL of PMA treatment for 48 h followed by 24 h of culture in fresh medium. Cellular toxicity of all compounds was determined using the colorimetric MTT-based assay after incubation at 37 °C for 72 h in the presence of increasing concentrations of compounds [71].

[1] = test system: human lung fibroblast MRC-5 cells; test: Cellular toxicity (MTT assay) in MRC-5 cells; assay type: cell-based; settings: for EC50: Homo sapiens, MRC5, MTT assay, 72 h at 37 °C; for SI (EC50 MRC-5/EC50 parasite): Selectivity Index
[2] = test system: intracellular amastigotes of Leishmania donovani MHOM/ET/67/HU3 line; test: Susceptibility of intracellular Leishmania amastigotes (luciferase assay); assay type: cell-based; settings: L. donovani in THP-1 macrophages, 72 h at 37 °C, threshold 20 μM
Description: The leishmanicidal activity of all the synthesized sp^2-iminosugar C-glycosides (1–12) was evaluated against intracellular amastigotes of Leishmania donovani MHOM/ET/67/HU3 line with luciferase gene integrated into the parasite genome. […] A strong influence of the nature of the lipid chain α-linked to the pseudoanomeric position of the bicyclic core in the sp^2-IGLs was inferred from the corresponding data. […] The longer-chain sp^2-IGLs 2 and 8 were over the 20 μM concentration threshold in this assay. In the sulfone series, the results evidenced some disparity between the ONJ and OGJ epimers.
Macrophage-differentiated THP-1 cells, which are considered a suitable model for human macrophages, were plated at a density of 3 × 10^4 or 3 × 10^5 macrophages/well in 96-well white polystyrene microplates or 24-well tissue culture chamber slides, respectively, and were infected at a macrophage/parasite ratio of 1:10 with L. donovani promastigotes. Twenty-four hours after infection at 35 °C and 5% CO2, extracellular parasites were removed by washing with serum-free medium. Infected cell cultures were then incubated at different compound concentrations in RPMI 1640 medium plus 10% iFBS at 37 °C with 5% CO2 for 72 h. To determine the susceptibility of L. donovani LUC amastigotes, infected macrophages maintained in 96-well plates were lysed and then luminescence intensity was measured as indicative of the intracellular parasite growth, using the Luciferase Assay System Kit (Promega, Madison, Wis.) according to the instructions of the supplier. To determine the susceptibility of L. donovani HU3 amastigotes, infected macrophages maintained in 24-well plates were fixed for 30 min at 4 °C with 2.5% paraformaldehyde phosphate-buffered saline (PBS; 1.2 mM KH2PO4, 8.1 mM Na2HPO4, 130 mM NaCl, and 2.6 mM KCl adjusted to pH 7) and permeabilized with 0.1% Triton X-100 in PBS for 30 min. Intracellular parasites and macrophages were detected by nuclear staining with ProLong® Gold antifade reagent plus DAPI (Invitrogen). The percentage infection and mean number of amastigotes from infected macrophages were determined with 200 macrophages/well.

α-Glcase (Yeast Maltase) = target: T1, α-Glcase (Yeast Maltase) (Saccharomyces cerevisiae, UniProt P53341); test: Glycosidase inhibition (Ki), yeast maltase α-glucosidase; assay type: biochemical
T1 construct: purchased
From the text: The inhibitory properties of the new sp^2-IGLs 1–12 and the α-C-allyl ONJ and OGJ glycosides 15, and 24 were examined against a panel of commercial glycosidases that included the α-glucosidases maltase (Saccharomyces cerevisiae) and amyloglucosidase (Aspergillus niger), the β-glucosidases from almonds and bovine liver, α-galactosidase from green coffee beans, β-galactosidase from Escherichia coli, α-mannosidase from Jack beans, and β-mannosidase from Helix pomatia. The corresponding inhibition constant (Ki) values are collected in Table 1.
Inhibition constant (Ki) values were determined by spectrophotometrically measuring the residual hydrolytic activities of the glycosidases against the respective o- (for β-galactosidase from E. coli) or p-nitrophenyl α- or β-D-glycopyranoside (for other glycosidases) in the presence of the iminosugars. Each assay was performed in phosphate buffer or phosphate-citrate buffer (for α- or β-mannosidase and amyloglucosidase) at the optimal pH for the enzymes. The reactions were initiated by addition of the enzyme to a solution of the substrate in the absence or presence of various inhibitor concentrations. The mixture was incubated for 10–30 min at 37 °C or 55 °C (for amyloglucosidase) and the reaction was quenched by addition of 1 M Na2CO3. Reaction times were appropriate to obtain 10–20% conversion of the substrate in order to achieve linear rates. The absorbance of the resulting mixture was determined at 405 nm. Approximate value of Ki was determined from the slope of Dixon plots using a fixed concentration of substrate (around the Km value for the different glycosidases) and various concentrations of inhibitor. Full Ki determinations and enzyme inhibition mode were determined from the slope of Lineweaver–Burk plots and double reciprocal analysis. Representative examples of Dixon and Lineweaver–Burk plots are shown in the Supplementary materials.

[3] = test system: human solid tumor cell lines A549, SW1573 (lung), HBL-100, T-47D (breast), HeLa (cervix), WiDr (colon); test: Antiproliferative activity (SRB assay) against a panel of six human solid tumor cell lines; assay type: cell-based; settings: for GI50: read-out: GI50 (concentration to achieve 50% growth inhibition), 48 h, tested 1 to 100 μM, only values below 100 μM significant; for GI50 (concentration to achieve 50% growth inhibition): 48 h, tested 1 to 100 μM, only values below 100 μM significant
Description: The antiproliferative activity of all the sp^2-iminosugar C-glycosides (1–12) was evaluated against a panel of six representative human solid tumor cell lines including lung (A549 and SW1573), breast (HBL-100, T-47D), cervix (HeLa), and colon (WiDr).
All reagents were used as purchased from commercial suppliers without further purification. The human solid tumor cell lines A549 (lung), HBL-100 (breast), HeLa (cervix), SW1573 (lung), T-47D (breast), and WiDr (colon) were used in this study. These cell lines were a kind gift from Prof. G. J. Peters (VU Medical Center, Amsterdam, The Netherlands).
Cells were inoculated onto 96-well microtiter plates in a volume of 100 μL per well at densities of 2500 (A549, HBL-100, HeLa, and SW1573) and 5000 (T-47D and WiDr) cells per well, based on their doubling times. Compounds were initially dissolved in DMSO at 400 times the desired final maximum test concentration. Control cells were exposed to an equivalent concentration of DMSO (0.25% v/v, negative control). Each agent was tested in triplicate at different dilutions in the range of 1 to 100 μM. The drug treatment started on day 1 after plating. Drug incubation times were 48 h, after which cells were precipitated with 25 μL ice-cold TCA (50% w/v) and fixed for 60 min at 4 °C. Then the SRB assay was performed. The optical density (OD) of each well was measured at 530 nm, using BioTek’s PowerWave XS Absorbance Microplate Reader. Values were corrected for background OD from wells only containing medium. The antiproliferative activity for each compound, expressed as GI50 values, was calculated according to NCI formulas.

[4] = mean ± SD, three independent determinations, competitive inhibition, read-out: Ki, α-Glcase (Yeast Maltase)
[5] = mean ± SD, three independent determinations, competitive inhibition

T1 sequence (P53341 whole entry): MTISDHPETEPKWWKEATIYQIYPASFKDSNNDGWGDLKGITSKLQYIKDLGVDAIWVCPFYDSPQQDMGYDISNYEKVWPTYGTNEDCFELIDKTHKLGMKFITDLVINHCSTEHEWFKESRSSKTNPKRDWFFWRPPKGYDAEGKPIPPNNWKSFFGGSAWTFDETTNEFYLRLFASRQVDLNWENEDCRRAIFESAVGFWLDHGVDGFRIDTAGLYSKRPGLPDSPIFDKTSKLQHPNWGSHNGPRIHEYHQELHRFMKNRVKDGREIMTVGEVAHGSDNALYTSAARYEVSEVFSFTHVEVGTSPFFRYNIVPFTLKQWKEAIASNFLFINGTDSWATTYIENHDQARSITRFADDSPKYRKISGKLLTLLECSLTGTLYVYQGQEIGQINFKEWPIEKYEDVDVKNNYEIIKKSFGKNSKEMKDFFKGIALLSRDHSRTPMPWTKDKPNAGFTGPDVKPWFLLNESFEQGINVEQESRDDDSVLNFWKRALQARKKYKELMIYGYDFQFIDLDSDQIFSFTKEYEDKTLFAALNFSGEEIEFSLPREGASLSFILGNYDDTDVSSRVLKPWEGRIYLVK

Row | SMILES | EC50 (THP-1 cells) | SI (EC50 THP-1/EC50 parasite) (THP-1 cells) | EC50 [1] | SI (EC50 MRC-5/EC50 parasite) [1] | EC50 [2] | Ki (α-Glcase (Yeast Maltase); [4]) | GI50 [3] | Ki, α-Glcase (Yeast Maltase) (α-Glcase (Yeast Maltase); [5]) | Ki (α-Glcase (Yeast Maltase)) | GI50 (concentration to achieve 50% growth inhibition) [3]
1 | C[C@@H]1[C@H](O)[C@@H](C)/C=C/C=C/C=C/C=C/C=C/C=C/C=C/[C@H](O[C@@H]2O[C@H](C)[C@@H](O)[C@H](N)[C@@H]2O)C[C@@H]2O[C@](O)(C[C@@H](O)C[C@@H](O)[C@H](O)CC[C@@H](O)C[C@@H](O)CC(=O)O[C@H]1C)C[C@H](O)[C@H]2C(=O)O [AmB, amphotericin B, reference compound] | 20.1 ± 4.43 µM | 133.80 | 16.9 ± 2.44 µM | 112.87 | 0.15 ± 0.01 µM | – | – | – | – | –
2 | CCCCCCCCSCCC[C@@H]1[C@H](O)[C@@H](O)[C@H](O)[C@H]2COC(=O)N12 [Compound 1, (1R)-1-[3-(Octylthio)propyl)-5N,6O-oxomethylidene-1-deoxynojirimycin] | 131 ± 4.29 µM | 17.06 | 32.2 ± 1.03 µM | 4.19 | 7.68 ± 0.29 µM | 0.34 ± 0.02 µM | 14 to 54 µM | – | – | –
3 | CCCCCCCCCCCCSCCC[C@@H]1[C@H](O)[C@@H](O)[C@H](O)[C@H]2COC(=O)N12 [Compound 2, (1R)-1-[3-(Dodecylthio)propyl]-5N,6O-oxomethylidene-1-deoxynojirimycin] | 72.2 ± 4.18 µM | < 3.61 | 19.9 ± 2.76 µM | < 1 | > 20 µM | 0.74 ± 0.03 µM | 9.6 to 19 µM | nanomolar competitive inhibitor | – | –
4 | CC(C)(C)OC(=O)NCCSCCC[C@@H]1[C@H](O)[C@@H](O)[C@H](O)[C@H]2COC(=O)N12 [Compound 3, (1R)-1-[3-(N-tert-Butoxycarbonylaminoethylthio)propyl]-5N,6O-oxomethylidene-1-deoxynojirimycin] | > 200 µM | – | 134 ± 6.02 µM | 8.95 | 15 ± 1.28 µM | – | > 100 µM | – | 0.28 ± 0.02 µM | did not show any significant antiproliferative activity; also recorded: out of range; also recorded: did not display significant antiproliferative activity
5 | CCCCCCCCS(=O)(=O)CCC[C@@H]1[C@H](O)[C@@H](O)[C@H](O)[C@H]2COC(=O)N12 [Compound 4, (1R)-1-[3-(Octylsulfonyl)propyl]-5N,6O-oxomethylidene-1-deoxynojirimycin] | > 200 µM | – | 189 ± 15.6 µM | < 9.45 | > 20 µM | 2.6 ± 0.3 µM | > 100 µM | – | – | –
6 | CCCCCCCCCCCCS(=O)(=O)CCC[C@@H]1[C@H](O)[C@@H](O)[C@H](O)[C@H]2COC(=O)N12 [Compound 5, (1R)-1-[3-(Dodecylsulfonyl)propyl]-5N,6O-oxomethylidene-1-deoxynojirimycin] | 100 ± 10.9 µM | 8.78 | 71.5 ± 3.75 µM | 6.25 | 11.4 ± 5.08 µM | 2.5 ± 0.2 µM | 26 to 82 µM | – | – | –
7 | CC(C)(C)OC(=O)NCCS(=O)(=O)CCC[C@@H]1[C@H](O)[C@@H](O)[C@H](O)[C@H]2COC(=O)N12 [Compound 6, (1R)-1-[3-(N-tert-Butoxycarbonylaminoethylsulfonyl)propyl]-5N,6O-oxomethylidene-1-deoxynojirimycin] | > 200 µM | – | 155 ± 3.1 µM | < 7.76 | > 20 µM | 0.75 ± 0.02 µM | > 100 µM | – | – | did not show any significant antiproliferative activity
8 | CCCCCCCCCCCCSCCC[C@@H]1[C@H](O)[C@@H](O)[C@@H](O)[C@H]2COC(=O)N12 [Compound 8, (1R)-1-[3-(Dodecylthio)propyl]-5N,6O-oxomethylidene-1-deoxygalactonojirimycin] | 68.3 ± 3.04 µM | < 3.42 | 32.1 ± 1.94 µM | < 1.60 | > 20 µM | – | 9.6 to 19 µM | did not inhibit and n.i. | – | –
9 | CCCCCCCCS(=O)(=O)CCC[C@@H]1[C@H](O)[C@@H](O)[C@@H](O)[C@H]2COC(=O)N12 [Compound 10, (1R)-1-[3-(Octylsulfonyl)propyl]-5N,6O-oxomethylidene-1-deoxygalactonojirimycin] | > 200 µM | – | 185 ± 21.2 µM | 13.40 | 13.8 ± 1.72 µM | – | > 100 µM | n.i. | – | –
10 | CCCCCCCCCCCCS(=O)(=O)CCC[C@@H]1[C@H](O)[C@@H](O)[C@@H](O)[C@H]2COC(=O)N12 [Compound 11, (1R)-1-[3-(Dodecylsulfonyl)propyl]-5N,6O-oxomethylidene-1-deoxygalactonojirimycin] | > 200 µM | – | 162 ± 20.2 µM | < 8.10 | > 20 µM | – | 26 to 82 µM | n.i. | – | –
